Test results reported in the NIST ThermoML archive (doi:10.1016/j.jct.2013.04.014).
Numbers after ± are expanded uncertainties.

Legend:
[1] = 298.2 K; for surface tension liquid-gas: Pendant drop shape; for mass density: 101.33 kPa, Liquid, Vibrating tube method
[2] = xn = mol fraction of the nth substance listed; details: 298.2 K; for surface tension liquid-gas: Pendant drop shape; for mass density: 101.33 kPa, Liquid, Vibrating tube method

CCCC[n+]1ccn(C)c1.O=S(=O)([N-]S(=O)(=O)C(F)(F)F)C(F)(F)F
surface tension liquid-gas [1]: 33.15 ± 1.1 mN/m | mass density [1]: 1436.9 ± 2.1 kg/m3

CCCCn1cc[n+](C)c1C.O=S(=O)([N-]S(=O)(=O)C(F)(F)F)C(F)(F)F
surface tension liquid-gas [1]: 34.5 ± 1.1 mN/m | mass density [1]: 1421.2 ± 2.1 kg/m3

CCC[N+]1(C)CCCC1.O=S(=O)([N-]S(=O)(=O)C(F)(F)F)C(F)(F)F
surface tension liquid-gas [1]: 35.35 ± 1.1 mN/m | mass density [1]: 1431.7 ± 2.1 kg/m3

CCC[N+]1(C)CCCCC1.O=S(=O)([N-]S(=O)(=O)C(F)(F)F)C(F)(F)F
surface tension liquid-gas [1]: 35.17 ± 1.1 mN/m | mass density [1]: 1411.4 ± 2.1 kg/m3

CCC[n+]1cccc(C)c1.O=S(=O)([N-]S(=O)(=O)C(F)(F)F)C(F)(F)F
surface tension liquid-gas [1]: 35.02 ± 1.1 mN/m | mass density [1]: 1449.7 ± 2.1 kg/m3

CCCCn1cc[n+](C)c1C.O=S(=O)([N-]S(=O)(=O)C(F)(F)F)C(F)(F)F + CCCC[n+]1ccn(C)c1.O=S(=O)([N-]S(=O)(=O)C(F)(F)F)C(F)(F)F
surface tension liquid-gas ([2]; x1 = 0.2193): 33.38 ± 1.1 mN/m | surface tension liquid-gas ([2]; x1 = 0.3981): 33.59 ± 1.1 mN/m | surface tension liquid-gas ([2]; x1 = 0.4962): 33.72 ± 1.1 mN/m | surface tension liquid-gas ([2]; x1 = 0.5995): 33.87 ± 1.1 mN/m | surface tension liquid-gas ([2]; x1 = 0.7896): 34.16 ± 1.1 mN/m | surface tension liquid-gas ([2]; x1 = 1): 34.5 ± 1.1 mN/m | mass density ([2]; x1 = 0.2193): 1433.8 ± 2.1 kg/m3 | mass density ([2]; x1 = 0.3981): 1431.2 ± 2.1 kg/m3 | mass density ([2]; x1 = 0.4962): 1429.6 ± 2.1 kg/m3 | mass density ([2]; x1 = 0.5995): 1428 ± 2.1 kg/m3 | mass density ([2]; x1 = 0.7896): 1424.9 ± 2.1 kg/m3 | mass density ([2]; x1 = 1): 1421.2 ± 2.1 kg/m3

CCC[N+]1(C)CCCC1.O=S(=O)([N-]S(=O)(=O)C(F)(F)F)C(F)(F)F + CCCC[n+]1ccn(C)c1.O=S(=O)([N-]S(=O)(=O)C(F)(F)F)C(F)(F)F
surface tension liquid-gas ([2]; x1 = 0.2094): 33.63 ± 1.1 mN/m | surface tension liquid-gas ([2]; x1 = 0.3935): 34.04 ± 1.1 mN/m | surface tension liquid-gas ([2]; x1 = 0.5004): 34.27 ± 1.1 mN/m | surface tension liquid-gas ([2]; x1 = 0.5943): 34.48 ± 1.1 mN/m | surface tension liquid-gas ([2]; x1 = 0.7854): 34.89 ± 1.1 mN/m | surface tension liquid-gas ([2]; x1 = 1): 35.35 ± 1.1 mN/m | mass density ([2]; x1 = 0.2094): 1436.9 ± 2.1 kg/m3 | mass density ([2]; x1 = 0.3935): 1436.4 ± 2.1 kg/m3 | mass density ([2]; x1 = 0.5004): 1435.9 ± 2.1 kg/m3 | mass density ([2]; x1 = 0.5943): 1435.4 ± 2.1 kg/m3 | mass density ([2]; x1 = 0.7854): 1433.9 ± 2.1 kg/m3 | mass density ([2]; x1 = 1): 1431.7 ± 2.1 kg/m3

CCC[N+]1(C)CCCCC1.O=S(=O)([N-]S(=O)(=O)C(F)(F)F)C(F)(F)F + CCCC[n+]1ccn(C)c1.O=S(=O)([N-]S(=O)(=O)C(F)(F)F)C(F)(F)F
surface tension liquid-gas ([2]; x1 = 0.2156): 33.53 ± 1.1 mN/m | surface tension liquid-gas ([2]; x1 = 0.4069): 33.9 ± 1.1 mN/m | surface tension liquid-gas ([2]; x1 = 0.4988): 34.08 ± 1.1 mN/m | surface tension liquid-gas ([2]; x1 = 0.5955): 34.28 ± 1.1 mN/m | surface tension liquid-gas ([2]; x1 = 0.7958): 34.71 ± 1.1 mN/m | surface tension liquid-gas ([2]; x1 = 1): 35.17 ± 1.1 mN/m | mass density ([2]; x1 = 0.2156): 1432.9 ± 2.1 kg/m3 | mass density ([2]; x1 = 0.4069): 1428.5 ± 2.1 kg/m3 | mass density ([2]; x1 = 0.4988): 1426.2 ± 2.1 kg/m3 | mass density ([2]; x1 = 0.5955): 1423.7 ± 2.1 kg/m3 | mass density ([2]; x1 = 0.7958): 1417.9 ± 2.1 kg/m3 | mass density ([2]; x1 = 1): 1411.4 ± 2.1 kg/m3

CCC[n+]1cccc(C)c1.O=S(=O)([N-]S(=O)(=O)C(F)(F)F)C(F)(F)F + CCCC[n+]1ccn(C)c1.O=S(=O)([N-]S(=O)(=O)C(F)(F)F)C(F)(F)F
surface tension liquid-gas ([2]; x1 = 0.2093): 33.42 ± 1.1 mN/m | surface tension liquid-gas ([2]; x1 = 0.3996): 33.73 ± 1.1 mN/m | surface tension liquid-gas ([2]; x1 = 0.4995): 33.91 ± 1.1 mN/m | surface tension liquid-gas ([2]; x1 = 0.6047): 34.12 ± 1.1 mN/m | surface tension liquid-gas ([2]; x1 = 0.8024): 34.55 ± 1.1 mN/m | surface tension liquid-gas ([2]; x1 = 1): 35.02 ± 1.1 mN/m | mass density ([2]; x1 = 0.2093): 1440.2 ± 2.1 kg/m3 | mass density ([2]; x1 = 0.3996): 1442.9 ± 2.1 kg/m3 | mass density ([2]; x1 = 0.4995): 1444.2 ± 2.1 kg/m3 | mass density ([2]; x1 = 0.6047): 1445.5 ± 2.1 kg/m3 | mass density ([2]; x1 = 0.8024): 1447.7 ± 2.1 kg/m3 | mass density ([2]; x1 = 1): 1449.7 ± 2.1 kg/m3

CCCC[n+]1ccn(C)c1.O=S(=O)([N-]S(=O)(=O)C(F)(F)F)C(F)(F)F + CCCCn1cc[n+](C)c1C.O=S(=O)([N-]S(=O)(=O)C(F)(F)F)C(F)(F)F
surface tension liquid-gas ([2]; x2 = 0): 33.15 ± 1.1 mN/m | mass density ([2]; x2 = 0): 1436.9 ± 2.1 kg/m3

CCCC[n+]1ccn(C)c1.O=S(=O)([N-]S(=O)(=O)C(F)(F)F)C(F)(F)F + CCC[N+]1(C)CCCC1.O=S(=O)([N-]S(=O)(=O)C(F)(F)F)C(F)(F)F
surface tension liquid-gas ([2]; x2 = 0): 33.15 ± 1.1 mN/m | mass density ([2]; x2 = 0): 1436.9 ± 2.1 kg/m3

CCCC[n+]1ccn(C)c1.O=S(=O)([N-]S(=O)(=O)C(F)(F)F)C(F)(F)F + CCC[N+]1(C)CCCCC1.O=S(=O)([N-]S(=O)(=O)C(F)(F)F)C(F)(F)F
surface tension liquid-gas ([2]; x2 = 0): 33.15 ± 1.1 mN/m | mass density ([2]; x2 = 0): 1436.9 ± 2.1 kg/m3

CCCC[n+]1ccn(C)c1.O=S(=O)([N-]S(=O)(=O)C(F)(F)F)C(F)(F)F + CCC[n+]1cccc(C)c1.O=S(=O)([N-]S(=O)(=O)C(F)(F)F)C(F)(F)F
surface tension liquid-gas ([2]; x2 = 0): 33.15 ± 1.1 mN/m | mass density ([2]; x2 = 0): 1436.9 ± 2.1 kg/m3
